Each structure is given as a SMILES string. Structures can show the parent of a compound that is named as a salt.

32 molecules from US6413947B1, “Anilide derivative, production and use thereof” (Takeda Chemical Industries, Ltd., priority 1997, dated 2002) can be followed below.

`COc1ccc(-c2ccc3c(c2)C=C(C(=O)Nc2ccc(CN(C)C4CCC5(CC4)OCCO5)cc2)CCS3)cc1` [Compound 283, N-[4-[N-(4,4-ethylenedioxy-cyclohexyl)-N-methylaminomethyl]phenyl]-7-(4-methoxy-phenyl)-2,3-dihydro-1-benzothiepine-4-carboxamide]: the melting point (in general, the temperature, or range, at which the solid turns liquid) lay in the range of 198 to 201 °C. For the molecule `CN(Cc1ccc(NC(=O)C2=Cc3cc(-c4ccc(N5CCOCC5)cc4)ccc3SCC2)cc1)C1CCOCC1` [Compound 285, N-[4-[N-methyl-N-(tetrahydropyran-4-yl)aminomethyl]phenyl]-7-(4-morpholinophenyl)-2,3-dihydro-1-benzothiepine-4-carboxamide], the melting point lay within 255 to 259 °C. The value for `Cc1ccc(-c2ccc3c(c2)C=C(C(=O)Nc2ccc(Cc4ccccn4)cc2)CCO3)cc1` [Compound 161, N-[4—(2-pyridylmethyl)phenyl]-7—(4-methylphenyl)-2,3-dihydro-1-benzoxepine-4-carboxamide] was 189 to 190 °C; that for `COc1ccc(CCN(C)Cc2ccc(NC(=O)/C=C/c3cccc(-c4ccc(C)cc4)c3)cc2)cc1OC.Cl` was 214 to 217 °C; that for `CN(Cc1ccc(NC(=O)C2=Cc3cc(-c4cccnc4)ccc3OCC2)cc1)C1CCOCC1` [Compound 146, 7—(3-pyridyl)-N-(4—((N-tetrahydropyran-4-yl-N-methylamino)-methyl)phenyl)-2,3-dihydro-1-benzoxepine-4-carboxamide] was 158 to 159 °C. In the case of `Cc1ccc(-c2cccc(/C=C/C(=O)Nc3ccc(CN(C)CC#N)cc3)c2)cc1` [Compound 64, (E)-N-[4-[N-(cyanomethyl)-N-methylaminomethyl]phenyl]-3—(4-methylphenyl)cinnamamide], the melting point fell in the range of 163 to 165 °C. The value for `CCCP(=O)(CCC)Cc1ccc(NC(=O)/C=C/c2cccc(-c3ccc(C)cc3)c2)cc1` [Compound 194, (E)-N-(4-dipropylphosphorylmethylphenyl)-3—(4-methylphenyl)cinnamamide] was 225 to 227 °C. The value for `Cc1ccc(-c2ccc3c(c2)C=C(C(=O)Nc2ccc(Cc4cccc[n+]4[O-])cc2)CO3)cc1` [Compound 200, N-[4—(1-oxidopyridin-2-ylmethyl)phenyl]-6—(4-methylphenyl)-2H-1-benzopyran-3-carboxamide] was 261 to 263 °C; that for `Cc1ccc(-c2ccc3c(c2)C=C(C(=O)Nc2ccc(CN(C)C4CCOCC4)cc2)CC(C)O3)cc1` (centres unmarked) [Compound 104, 7—(4-methylphenyl)-2-methyl-N-(4—((N-tetrahydropyran-4-yl-N-methylamino)methyl)phenyl)-2,3-dihydro-1-benzoxepine-4-carboxamide] was 170 to 171 °C. `Cc1ccc(-c2ccc3c(c2)C=C(C(=O)Nc2ccc(Cc4ncccc4O)cc2)CCO3)cc1` [Compound 174, N-[4—(3-hydroxypyridin-2-ylmethyl)phenyl]-7—(4-methylphenyl)-2,3-dihydro-1-benzoxepine-4-carboxamide] showed a melting point of 285 to 288 °C. Regarding `Cc1ccc(-c2ccc3c(c2)C=C(C(=O)Nc2ccc(-c4ccccn4)cc2)CCO3)cc1` [Compound 159, N-[4—(2-pyridyl)phenyl]-7—(4-methylphenyl)-2,3-dihydro-1-benzoxepine-4-carboxamide], the melting point fell in the range of 228 to 229 °C.

Turning to `COCC(COC)N(C)Cc1ccc(NC(=O)C2=Cc3cc(-c4ccc(C)cc4)ccc3OCC2)cc1` [Compound 313, N-(4-((N-(1,3-dimethoxypropan-2-yl)-N-methylamino)methyl)phenyl)-7-(4-methylphenyl)-2,3-dihydro-1-benzoxepine-4-carboxamide], the melting point lay within 128 to 132 °C.

`Cc1ccc(-c2ccc3c(c2)C=C(C(=O)Nc2ccc(CNCc4ccccc4)cc2)CCO3)cc1` [Compound 117, N-(4—((benzylamino)methyl)phenyl)-7—(4-methylphenyl)-2,3-dihydro-1-benzoxepine-4-carboxamide]: the melting point lay in the range of 147 to 148 °C. Regarding `Cc1ccc(-c2ccc3c(c2)C=C(C(=O)Nc2ccc(CN(CCO)CCO)cc2)CC3)cc1` [Compound 51, N-[4-[N,N-bis(2-hydroxyethyl)-aminomethyl]phenyl]-7—(4-methylphenyl)-3,4-dihydronaphthalene-2-carboxamide], the melting point was in the range of 150 to 151 °C. The same measure for `O=C(Nc1ccc(CN2CCCCC2)cc1)C1=Cc2cc(C3CCCCC3)ccc2CC1` [Compound 1, 7-cyclohexyl-N-[4—(piperidinomethyl)-phenyl]-3,4-dihydronaphthalene-2-carboxamide]: 180 to 181 °C; for `CSc1ccc(-c2ccc3c(c2)C=C(C(=O)Nc2ccc(CN(C)C4CCOCC4)cc2)CCO3)cc1` [Compound 226, N-[4-[N-methyl-N-(tetrahydropyran-4-yl)aminomethyl]-phenyl]-7—(4-methylthiophenyl)-2,3-dihydro-1-benzoxepine-4-carboxamide]: 180 to 186 °C. The value for `Cc1ccc(-c2ccc3c(c2)C=C(C(=O)Nc2ccc(CN4CCCCC4)cc2)CC(c2ccccc2)O3)cc1` (centres unmarked) [Compound 102, 7—(4-methylphenyl)-2-phenyl-N-(4—(piperidinomethyl)phenyl)-2,3-dihydro-1-benzoxepine-4-carboxamide] was 210 to 211 °C; that for `Cc1ccc(-c2cccc(/C=C/C(=O)Nc3ccc(CN4CCCC(CO)C4)cc3)c2)cc1` (centres unmarked) [Compound 66, (E)-N-[4-[3—(hydroxy-methyl)piperidinomethyl]phenyl]-3—(4-methylphenyl)cinnamamide] was 153 to 154 °C.

As to `COCCN(CCOC)Cc1ccc(NC(=O)C2=Cc3cc(-c4ccc(C)cc4)ccc3OCC2)cc1` [Compound 311, N-(4-((N,N-bis(2-methoxyethyl)amino)methyl)phenyl)-7-(4-methylphenyl)-2,3-dihydro-1-benzoxepine-4-carboxamide], the melting point was in the range of 110 to 112 °C.

Consider `Cc1ccc(-c2ccc3c(c2)C=C(C(=O)Nc2ccc(CN4CCCCC4)cc2)CC3)cc1` [Compound 14, 7—(4-methylphenyl)-N-[4—(piperidinomethyl)phenyl]-3,4-dihydronaphthalene-2-carboxamide], for which the melting point lay in the range of 187 to 189 °C. `Cc1ccc(-c2ccc3c(c2)C=C(C(=O)Nc2ccc(C[N+]4(C)CCCCC4)cc2)CC3)cc1` (as salt: iodide) [Compound 16, 1-methyl-1-[4-[7—(4-methylphenyl)-3,4-dihydronaphthalene-2-carboxamido]benzyl]piperidinium iodide]: the melting point lay within 202 to 204 °C. The molecule `Cc1ccc(-c2ccc3c(c2)C=C(C(=O)Nc2ccc(CSC4CCCCC4)cc2)CCO3)cc1` [Compound 53, N-(4—(cyclohexylthiomethyl)-phenyl)-7—(4-methylphenyl)-2,3-dihydro-1-benzoxepine-4-carboxamide] came in with a melting point of 161 to 162 °C. The value for `Cc1ccc(-c2ccc3c(c2)C=C(C(=O)Nc2ccc(CNC4CCCCC4)cc2)CCO3)cc1` [Compound 114, N-(4—((cyclohexylamino)methyl)phenyl)-7—(4-methylphenyl)-2,3-dihydro-1-benzoxepine-4-carboxamide] was 183 to 184 °C; that for `Cc1ccc(-c2ccc3c(c2)C=C(C(=O)Nc2ccc(C(O)c4ccccn4)cc2)C(C)O3)cc1` (centres unmarked) [Compound 202, N-[4-[hydroxy(2-pyridyl)methyl]-phenyl]-6—(4-methylphenyl)-2-methyl-2H-1-benzopyran-3-carboxamide] was 202 to 205 °C. The same measure for `Cc1ccc(-c2ccc3c(c2)C=C(C(=O)Nc2ccc(-c4cccc[n+]4[O-])cc2)CCO3)cc1` [Compound 160, N-[4—(1-oxidopyridin-2-yl)phenyl]-7—(4-methylphenyl)-2,3-dihydro-1-benzoxepine-4-carboxamide]: 254 °C (dec.); for `Cc1ccc(-c2cccc(/C=C/C(=O)Nc3ccc(-c4cccc[n+]4[O-])cc3)c2)cc1` [Compound 189, (E)-N-[4—(1-oxidopyridin-2-yl)phenyl]-3—(4-methylphenyl)cinnamamide]: 240 to 241 °C.

For `Cc1ccc(-c2cccc(/C=C/C(=O)Nc3ccc(C(O)c4cccc[n+]4[O-])cc3)c2)cc1` (centres unmarked) [Compound 80, (E)-N-[4-[hydroxy(1-oxido-2-pyridyl)methyl]-phenyl]-3—(4-methylphenyl)cinnamamide], the melting point fell in the range of 165 to 167 °C. The same measure for `COc1ccc(-c2ccc3c(c2)C=C(C(=O)Nc2ccc(CN(C)C4CCOCC4)cc2)CCS3)cc1` [Compound 282, 7-(4-methoxyphenyl)-N-[4-[N-methyl-N-(tetrahydropyran-4-yl)aminomethyl]phenyl]-2,3-dihydro-1-benzothiepine-4-carboxamide]: 162 to 164 °C; for `Cc1ccc(-c2ccc3c(c2)C=C(C(=O)Nc2ccc(CN4CCC(Cc5ccccc5)CC4)cc2)CC3)cc1` [Compound 35, N-[4—(4-benzyl-piperidinomethyl)phenyl]-7—(4-methylphenyl)-3,4-dihydronaphthalene-2-carboxamide]: 199 to 201 °C. The same measure for `CN(Cc1ccc(NC(=O)C2=Cc3cc(-c4ccc(S(C)(=O)=O)cc4)ccc3OCC2)cc1)C1CCOCC1` [Compound 273, 7-(4-methylsulfonylphenyl)-N-[4-[N-methyl-N-(tetra-hydropyran-4-yl)aminomethyl]phenyl]-2,3-dihydro-1-benzoxepine-4-carboxamide]: 233 to 235 °C. On to `COc1cc(CN2CCN(Cc3ccc(NC(=O)C4=Cc5cc(-c6ccc(C)cc6)ccc5CC4)cc3)CC2)cc(OC)c1OC` [Compound 45, N-[4-[1—(3,4,5-trimethoxybenzyl)-4-piperazinylmethyl]-phenyl]-7—(4-methylphenyl)-3,4-dihydronaphthalene-2-carboxamide], for which the melting point fell in the range of 143 to 144 °C. The same measure for `CCOCCCN(C)Cc1ccc(NC(=O)C2=Cc3cc(-c4ccc(OCC)cc4)ccc3N(C)CC2)cc1` [Compound 319, N-(4-((N-(3-ethoxypropyl)-N-methylamino)methyl)phenyl)-7-(4-ethoxyphenyl)-1-methyl-2,3-dihydro-1-benzazepine-4-carboxamide]: 129 to 131 °C.
